From PubChem BioAssay (NCI) come the findings set out here.

Some test systems named below: NCI-H226 lung; NCI/ADR-RES ovarian; OVCAR-3 ovarian; RXF 393 renal; SF-268 CNS; SK-MEL-28 melanoma; SK-MEL-5 melanoma; T-47D breast.
Test in all cases: NCI-60 cell line screen, 48 h

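These data come from cells grown in 96-well plates and exposed to compound for 48 hours at five concentrations. At the GI50, growth is halved. At the TGI there is no net growth.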

As to `C=CC1CC12C(=O)C1OC2(C)C2C(=O)c3c(O)ccc(O)c3C(=O)C12` (stereo not given), the GI50 was 5.8 µM with NCI-H226 lung; 3.76 µM in the experiment with NCI/ADR-RES ovarian; 1.13 µM in the experiment on OVCAR-3 ovarian; 2.11 µM in the experiment on RXF 393 renal; 2.8 µM in the experiment on SF-268 CNS; 4.94 µM in the experiment with SK-MEL-28 melanoma. Moreover, the GI50 is 1.86 µM in the experiment on SK-MEL-5 melanoma and 2.56 µM in the experiment on T-47D breast. Moreover, the TGI with NCI-H226 lung was 14.2 µM; in the experiment on NCI/ADR-RES ovarian it was 12.1 µM; with OVCAR-3 ovarian, 3.83 µM; with RXF 393 renal, 5.3 µM; in the experiment on SF-268 CNS, 9.58 µM; with SK-MEL-28 melanoma it was 25.4 µM. The TGI was determined as 4.97 µM with SK-MEL-5 melanoma and 14.1 µM in the experiment on T-47D breast.

Consider `COc1ccccc1/C=N\N=C(N/N=C/c1ccccc1OC)N/N=C/c1ccccc1OC`, for which the GI50 in the experiment with NCI-H226 lung was 4.08 µM; in the experiment on NCI/ADR-RES ovarian, 3.12 µM; in the experiment with OVCAR-3 ovarian it was 2.55 µM; in the experiment with RXF 393 renal, 5.01 µM; in the experiment with SF-268 CNS, 3.69 µM; in the experiment with SK-MEL-28 melanoma, 6.41 µM. The figures for the GI50 in the experiment on SK-MEL-5 melanoma and in the experiment on T-47D breast were 1.77 µM and 3.27 µM, respectively. In addition, the TGI in the experiment with NCI-H226 lung is above 100 µM; with NCI/ADR-RES ovarian it was 10.5 µM; in the experiment with OVCAR-3 ovarian, 13.1 µM; in the experiment with RXF 393 renal it was above 100 µM; in the experiment on SF-268 CNS it was above 100 µM; in the experiment with SK-MEL-28 melanoma it was above 100 µM. The TGI turned out to be 3.23 µM in the experiment with SK-MEL-5 melanoma and 9.69 µM with T-47D breast.

In the case of `CO[C@@H]1CC(=O)C2(CC(=O)O[C@@H]2/C=C(\C)CCC=C(C)C)C[C@@H]1O` (stereo not given in full), the GI50 in the experiment on NCI-H226 lung is 0.755 µM; in the experiment on NCI/ADR-RES ovarian, 0.487 µM; in the experiment with OVCAR-3 ovarian it was 0.839 µM; in the experiment on RXF 393 renal, 0.818 µM; in the experiment with SF-268 CNS, 1.18 µM; in the experiment with SK-MEL-28 melanoma, 0.83 µM. Further, the GI50 in the experiment on SK-MEL-5 melanoma was 0.913 µM; in the experiment on T-47D breast, 0.522 µM. Moreover, the TGI in the experiment with NCI-H226 lung came to 2.05 µM; in the experiment on NCI/ADR-RES ovarian it was 1.51 µM; with OVCAR-3 ovarian, 2.28 µM; with RXF 393 renal, 2.92 µM; with SF-268 CNS, 4.74 µM; in the experiment on SK-MEL-28 melanoma, 1.86 µM. The TGI in the experiment with SK-MEL-5 melanoma was determined as 2.13 µM; in the experiment with T-47D breast it was 1.26 µM.

With `CC(=O)O/N=C1/C(c2c(O)[nH]c3cc(Br)ccc23)=Nc2ccccc21`, the GI50 with NCI-H226 lung is 1.45 µM; in the experiment on NCI/ADR-RES ovarian it was 1.73 µM; in the experiment with OVCAR-3 ovarian, 0.771 µM; in the experiment with RXF 393 renal, 0.385 µM; in the experiment on SF-268 CNS it was 1.62 µM; with SK-MEL-28 melanoma it was 2.22 µM. For the same compound, the GI50 with SK-MEL-5 melanoma is 0.524 µM; with T-47D breast, 2.59 µM. For the same compound, the TGI turned out to be 4.74 µM with NCI-H226 lung; 4.59 µM with NCI/ADR-RES ovarian; 2.14 µM in the experiment on OVCAR-3 ovarian; 1.61 µM in the experiment with RXF 393 renal; 3.78 µM in the experiment with SF-268 CNS; 4.9 µM with SK-MEL-28 melanoma. Besides, the figures for the TGI with SK-MEL-5 melanoma and in the experiment on T-47D breast were 1.33 µM and 7.82 µM, respectively.

With `O=C(O)c1cc2cc(OCc3ccccc3)c(OCc3ccccc3)cc2[nH]1`, the GI50 was 17.1 µM in the experiment on NCI-H226 lung; 20.2 µM in the experiment on NCI/ADR-RES ovarian; 17.3 µM in the experiment with OVCAR-3 ovarian; 14.6 µM in the experiment on RXF 393 renal; 26.4 µM in the experiment with SF-268 CNS; 19.5 µM with SK-MEL-28 melanoma. The GI50 was 20.1 µM in the experiment on SK-MEL-5 melanoma and 23.9 µM in the experiment on T-47D breast. Moreover, the TGI in the experiment on NCI-H226 lung was determined as 35.7 µM; in the experiment on NCI/ADR-RES ovarian, 49.1 µM; in the experiment on OVCAR-3 ovarian, 31.6 µM; in the experiment on RXF 393 renal, 30.4 µM; in the experiment with SF-268 CNS, 79.7 µM; in the experiment with SK-MEL-28 melanoma, 43.2 µM. In addition, the TGI in the experiment on SK-MEL-5 melanoma was 47.3 µM; with T-47D breast, above 100 µM.

For the compound `O=C(Nc1ccc(Cl)cc1)c1cc(-c2ccc(Cl)cc2)c2sc(=O)[nH]c2n1`, the GI50 with NCI-H226 lung was 2.26 µM; in the experiment with NCI/ADR-RES ovarian it was 1.98 µM; with OVCAR-3 ovarian it was 2.32 µM; in the experiment with RXF 393 renal, 2.77 µM; with SF-268 CNS it was 2.56 µM; with SK-MEL-28 melanoma, 1.57 µM. In addition, the GI50 was 0.687 µM in the experiment on SK-MEL-5 melanoma and 0.584 µM with T-47D breast. Besides, the TGI with NCI-H226 lung was found to be 9.18 µM; in the experiment on NCI/ADR-RES ovarian, 7.61 µM; in the experiment with OVCAR-3 ovarian, 7.45 µM; with RXF 393 renal, 7.42 µM; in the experiment with SF-268 CNS, 22.3 µM; in the experiment with SK-MEL-28 melanoma it was 17.8 µM. Moreover, the TGI with SK-MEL-5 melanoma is 2.99 µM; in the experiment on T-47D breast it was 5.46 µM.

In the case of `COc1ccc(-n2c3c(c4c(CN5CCOCC5)c(O)ccc42)CCc2ccccc2C3=O)cc1`, the GI50 in the experiment on NCI-H226 lung is 54.5 µM; in the experiment on NCI/ADR-RES ovarian it was 25 µM; in the experiment with OVCAR-3 ovarian, 25.4 µM; with RXF 393 renal, 14.8 µM; with SF-268 CNS, above 100 µM; with SK-MEL-5 melanoma, 63.1 µM. Moreover, the GI50 in the experiment with T-47D breast was above 100 µM. Also, the TGI in the experiment with NCI-H226 lung is above 100 µM; with NCI/ADR-RES ovarian it was 88.9 µM; in the experiment with OVCAR-3 ovarian, above 100 µM; in the experiment with RXF 393 renal it was above 100 µM; with SF-268 CNS it was above 100 µM; with SK-MEL-5 melanoma, above 100 µM. The same compound returned a TGI in the experiment on T-47D breast above 100 µM.
